# System: MV-4-11 cells
# Experiment: Gene expression microarray analysis (Affymetrix PrimeView) and GSEA
# Assay type: cell-based, human
# Set-up: RFU PODN (11730768_x_at) / Fold change /veh PODN (11730768_x_at) / RFU LINC00158 (11744669_a_at) / Fold change /veh LINC00158 (11744669_a_at) / RFU DUSP10 (11751237_a_at) / Fold change /veh DUSP10 (11751237_a_at) / RFU ID3 (11757404_x_at) / Fold change /veh ID3 (11757404_x_at) / RFU PLEKHG5 (11737974_s_at) / Fold change /veh PLEKHG5 (11737974_s_at) / RFU LRRC4B (11730491_at) / Fold change /veh LRRC4B (11730491_at) / RFU GIMAP4 (11747438_a_at) / Fold change /veh GIMAP4 (11747438_a_at) / RFU KRT8 (11758183_x_at) / Fold change /veh KRT8 (11758183_x_at) / RFU CNN1 (11734310_a_at) / Fold change /veh CNN1 (11734310_a_at) / RFU VPS37D (11726825_at) / Fold change /veh VPS37D (11726825_at) / RFU C10orf10 (11716522_x_at) / Fold change /veh C10orf10 (11716522_x_at) / RFU KIR2DL2 /// KIR2DL4 /// KIR2DL5A /// KIR2DL5B /// KIR2DS1 /// KIR2DS2 /// KIR2DS3 /// KIR2DS4 /// KIR3DL3 /// KIR3DL3 /// KIR3DS1 (11738374_at) / Fold change /veh KIR2DL2 /// KIR2DL4 /// KIR2DL5A /// KIR2DL5B /// KIR2DS1 /// KIR2DS2 /// KIR2DS3 /// KIR2DS4 /// KIR3DL3 /// KIR3DL3 /// KIR3DS1 (11738374_at) / RFU C1QL1 (11718748_at) / Fold change /veh C1QL1 (11718748_at) / RFU TMPRSS4 (11747572_a_at) / Fold change /veh TMPRSS4 (11747572_a_at) / RFU HAMP (11756126_x_at) / Fold change /veh HAMP (11756126_x_at) / RFU RNFT2 (11725882_a_at) / Fold change /veh RNFT2 (11725882_a_at) / RFU NR4A2 (11747474_a_at) / Fold change /veh NR4A2 (11747474_a_at) / RFU ABCC12 (11746883_a_at) / Fold change /veh ABCC12 (11746883_a_at) / RFU TMEM136 (11760407_x_at) / Fold change /veh TMEM136 (11760407_x_at) / RFU CLDN22 /// WWC2 (11732394_at) / Fold change /veh CLDN22 /// WWC2 (11732394_at) / RFU HLA-DPB1 (11760878_x_at) / Fold change /veh HLA-DPB1 (11760878_x_at) / RFU SPINT1 (11716480_a_at) / Fold change /veh SPINT1 (11716480_a_at) / RFU GAP43 (11754022_s_at) / Fold change /veh GAP43 (11754022_s_at) / RFU A4GNT (11735810_at) / Fold change /veh A4GNT (11735810_at) / RFU PRB3 (11715151_x_at) / Fold change /veh PRB3 (11715151_x_at) / RFU TUBB4B (11761932_at) / Fold change /veh TUBB4B (11761932_at) / RFU CAPN14 (11732068_a_at) / Fold change /veh CAPN14 (11732068_a_at) / RFU TMCC2 (11721928_a_at) / Fold change /veh TMCC2 (11721928_a_at) / RFU IRGQ (11745062_a_at) / Fold change /veh IRGQ (11745062_a_at) / RFU FAM174B (11720279_a_at) / Fold change /veh FAM174B (11720279_a_at) / RFU TMPRSS4 (11748680_a_at) / Fold change /veh TMPRSS4 (11748680_a_at) / RFU FAM212B (11763350_a_at) / Fold change /veh FAM212B (11763350_a_at) / RFU PLEKHG5 (11743358_a_at) / Fold change /veh PLEKHG5 (11743358_a_at) / RFU ZSCAN30 (11745921_a_at) / Fold change /veh ZSCAN30 (11745921_a_at) / RFU CMKLR1 (11741424_a_at) / Fold change /veh CMKLR1 (11741424_a_at) / RFU LOC101060620 /// MAPK8IP1 (11723275_at) / Fold change /veh LOC101060620 /// MAPK8IP1 (11723275_at) / RFU SPTSSB (11747773_x_at) / Fold change /veh SPTSSB (11747773_x_at) / RFU PRSS12 (11739890_at) / Fold change /veh PRSS12 (11739890_at) / RFU BIN1 (11741810_x_at) / Fold change /veh BIN1 (11741810_x_at) / RFU WNT11 (11732464_a_at) / Fold change /veh WNT11 (11732464_a_at) / RFU C10orf10 (11716521_a_at) / Fold change /veh C10orf10 (11716521_a_at) / RFU C5orf56 (11738089_at) / Fold change /veh C5orf56 (11738089_at) / RFU CYB561 (11721691_x_at) / Fold change /veh CYB561 (11721691_x_at) / RFU ANKRD19P (11752326_a_at) / Fold change /veh ANKRD19P (11752326_a_at) / RFU OR2T12 /// OR2T33 /// OR2T8 (11738714_s_at) / Fold change /veh OR2T12 /// OR2T33 /// OR2T8 (11738714_s_at) / RFU VCAN (11748164_a_at) / Fold change /veh VCAN (11748164_a_at) / RFU JSRP1 (11732532_at) / Fold change /veh JSRP1 (11732532_at) / RFU KRTAP10-11 (11738290_x_at) / Fold change /veh KRTAP10-11 (11738290_x_at) / RFU MYO3A (11730013_a_at) / Fold change /veh MYO3A (11730013_a_at) / RFU EBF3 (11725865_a_at) / Fold change /veh EBF3 (11725865_a_at) / RFU CAMK2N1 (11719241_x_at) / Fold change /veh CAMK2N1 (11719241_x_at) / RFU C5orf56 (11738088_a_at) / Fold change /veh C5orf56 (11738088_a_at) / RFU OLFML3 (11715873_a_at) / Fold change /veh OLFML3 (11715873_a_at) / RFU LOC100653217 /// NTM (11731650_a_at) / Fold change /veh LOC100653217 /// NTM (11731650_a_at) / RFU MAPK11 (11762145_a_at) / Fold change /veh MAPK11 (11762145_a_at) / RFU FIZ1 (11724087_x_at) / Fold change /veh FIZ1 (11724087_x_at) / RFU OASL (11726364_x_at) / Fold change /veh OASL (11726364_x_at) / RFU SOX15 (11748057_x_at) / Fold change /veh SOX15 (11748057_x_at) / RFU CD79A (11719716_a_at) / Fold change /veh CD79A (11719716_a_at) / RFU HIST1H1D (11736915_at) / Fold change /veh HIST1H1D (11736915_at) / RFU CASKIN2 (11723855_a_at) / Fold change /veh CASKIN2 (11723855_a_at) / RFU LOC730098 (11760151_x_at) / Fold change /veh LOC730098 (11760151_x_at) / RFU OR4N2 (11742367_at) / Fold change /veh OR4N2 (11742367_at) / RFU PRRT2 (11749266_a_at) / Fold change /veh PRRT2 (11749266_a_at) / RFU SNX32 (11753110_a_at) / Fold change /veh SNX32 (11753110_a_at) / RFU CDHR5 (11726645_a_at) / Fold change /veh CDHR5 (11726645_a_at) / RFU RCAN1 (11760418_a_at) / Fold change /veh RCAN1 (11760418_a_at) / RFU FAM167A (11723789_a_at) / Fold change /veh FAM167A (11723789_a_at) / RFU FAM26E (11764081_at) / Fold change /veh FAM26E (11764081_at) / RFU ISYNA1 (11749810_s_at) / Fold change /veh ISYNA1 (11749810_s_at) / RFU ACY1 (11761880_at) / Fold change /veh ACY1 (11761880_at) / RFU 11764098_at / Fold change /veh 11764098_at / RFU SAMD14 (11745864_x_at) / Fold change /veh SAMD14 (11745864_x_at) / RFU NPB (11741838_a_at) / Fold change /veh NPB (11741838_a_at) / RFU TMPRSS6 (11731388_a_at) / Fold change /veh TMPRSS6 (11731388_a_at) / RFU KRTAP10-2 (11738614_at) / Fold change /veh KRTAP10-2 (11738614_at) / RFU ARHGAP8 /// PRR5-ARHGAP8 (11727945_x_at) / Fold change /veh ARHGAP8 /// PRR5-ARHGAP8 (11727945_x_at) / RFU KRTAP5-7 /// NADSYN1 (11734609_at) / Fold change /veh KRTAP5-7 /// NADSYN1 (11734609_at) / RFU RASL12 (11751679_a_at) / Fold change /veh RASL12 (11751679_a_at) / RFU CDKN2B (11736163_a_at) / Fold change /veh CDKN2B (11736163_a_at) / RFU PRF1 (11729649_at) / Fold change /veh PRF1 (11729649_at) / RFU, ZNF638 /// ZNF638-IT1 / Fold change vs veh, ZNF638 /// ZNF638-IT1 / RFU, PANK3 / Fold change vs veh, PANK3 / RFU, SH3YL1 / Fold change vs veh, SH3YL1 / RFU, ZEB2 / Fold change vs veh, ZEB2 / RFU, NRIP1 / Fold change vs veh, NRIP1 / RFU, PTTG1IP / Fold change vs veh, PTTG1IP / RFU, CAPN2 / Fold change vs veh, CAPN2 / RFU, MED14 / Fold change vs veh, MED14 / RFU, SNORA58 / Fold change vs veh, SNORA58 / RFU, C1orf63 / Fold change vs veh, C1orf63 / RFU, LRRFIP1 / Fold change vs veh, LRRFIP1 / RFU, NDUFAF7 / Fold change vs veh, NDUFAF7 / RFU, SLC12A2 / Fold change vs veh, SLC12A2 / RFU, IBTK / Fold change vs veh, IBTK / RFU, ESF1 / Fold change vs veh, ESF1 / Fold change vs veh, TMEM50B / RFU, TAOK1 / Fold change vs veh, TAOK1 / RFU, ACBD3 / Fold change vs veh, ACBD3 / RFU, TMA16 / Fold change vs veh, TMA16 / RFU, RWDD3 / Fold change vs veh, RWDD3 / RFU, BCAT1 / Fold change vs veh, BCAT1 / RFU, EDEM3 / Fold change vs veh, EDEM3 / RFU, TMEM33 / Fold change vs veh, TMEM33 / RFU, WDR75 / Fold change vs veh, WDR75 / RFU, AHCTF1 / Fold change vs veh, AHCTF1 / RFU, TFRC / Fold change vs veh, TFRC / RFU, ZDHHC17 / Fold change vs veh, ZDHHC17 / RFU, NOM1 / Fold change vs veh, NOM1 / RFU, ARL8B / Fold change vs veh, ARL8B / RFU, ZBTB11 / Fold change vs veh, ZBTB11 / RFU, TAMM41 / Fold change vs veh, TAMM41 / RFU, KIAA1704 /// LOC100996395 / Fold change vs veh, KIAA1704 /// LOC100996395 / RFU, ING1 / Fold change vs veh, ING1 / RFU, TRMT61B / Fold change vs veh, TRMT61B / RFU, FUBP3 / Fold change vs veh, FUBP3 / RFU, TP53 / Fold change vs veh, TP53 / RFU, TNKS2 / Fold change vs veh, TNKS2 / RFU, ZFP14 / Fold change vs veh, ZFP14 / RFU, ACTR2 / Fold change vs veh, ACTR2 / RFU, PPP3R1 / Fold change vs veh, PPP3R1 / RFU, PIK3R1 / Fold change vs veh, PIK3R1 / RFU, HNRNPA1 / Fold change vs veh, HNRNPA1 / RFU, RNF170 / Fold change vs veh, RNF170 / RFU, ZNF28 / Fold change vs veh, ZNF28 / RFU, RNGTT / Fold change vs veh, RNGTT / RFU, OGT / Fold change vs veh, OGT / RFU, BRD1 / Fold change vs veh, BRD1 / RFU, MARS / Fold change vs veh, MARS / RFU, ZNF655 / Fold change vs veh, ZNF655 / RFU, FAHD1 / Fold change vs veh, FAHD1 / RFU, BDP1 / Fold change vs veh, BDP1 / RFU, LRRCC1 / Fold change vs veh, LRRCC1 / RFU, ARID1A / Fold change vs veh, ARID1A / RFU, ZNF146 / Fold change vs veh, ZNF146 / RFU, ZNF330 / Fold change vs veh, ZNF330 / RFU, GPN3 / Fold change vs veh, GPN3 / RFU, C9orf123 / Fold change vs veh, C9orf123 / RFU, N4BP2L2 / Fold change vs veh, N4BP2L2 / RFU, ARFIP1 / Fold change vs veh, ARFIP1 / RFU, FAM179B / Fold change vs veh, FAM179B / RFU, BCL10 / Fold change vs veh, BCL10 / RFU, UHRF1BP1L / Fold change vs veh, UHRF1BP1L / RFU, BET1 / Fold change vs veh, BET1 / RFU, CNOT2 / Fold change vs veh, CNOT2 / RFU, ZNF268 / Fold change vs veh, ZNF268 / Fold change vs veh, ZNF507 / RFU, DGCR2 / Fold change vs veh, DGCR2 / RFU, WDSUB1 / Fold change vs veh, WDSUB1 / Fold change vs veh, HSP90B1 /// MIR3652 / RFU, ADSS / Fold change vs veh, ADSS / RFU, GK / Fold change vs veh, GK / RFU, ZNF148 / Fold change vs veh, ZNF148 / RFU, TAF9 / Fold change vs veh, TAF9 / RFU, SLC1A5 / Fold change vs veh, SLC1A5 / RFU, SLMO2 / Fold change vs veh, SLMO2 / RFU, ABCC4 / Fold change vs veh, ABCC4 / RFU, LOC101060439 /// RAP1B / Fold change vs veh, LOC101060439 /// RAP1B / RFU, RFX7 / Fold change vs veh, RFX7 / RFU, GTPBP10 / Fold change vs veh, GTPBP10 / RFU, CNEP1R1 / Fold change vs veh, CNEP1R1 / RFU, BIVM-ERCC5 /// ERCC5 / Fold change vs veh, BIVM-ERCC5 /// ERCC5 / RFU, ILF3 / Fold change vs veh, ILF3 / RFU 11762660_at / Fold change /veh 11762660_at / RFU VCAN (11757783_s_at) / Fold change /veh VCAN (11757783_s_at) / RFU DDX43 (11728927_at) / Fold change /veh DDX43 (11728927_at) / RFU KRT8 (11758188_x_at) / Fold change /veh KRT8 (11758188_x_at) / RFU NKD1 (11759106_at) / Fold change /veh NKD1 (11759106_at) / RFU SRD5A1 (11742802_a_at) / Fold change /veh SRD5A1 (11742802_a_at) / RFU TPSAB1 /// TPSB2 (11721975_s_at) / Fold change /veh TPSAB1 /// TPSB2 (11721975_s_at) / RFU GSTM3 (11746129_a_at) / Fold change /veh GSTM3 (11746129_a_at) / RFU IL23R (11737362_x_at) / Fold change /veh IL23R (11737362_x_at) / RFU TMEM51 (11727254_a_at) / Fold change /veh TMEM51 (11727254_a_at) / RFU PIWIL2 (11732686_x_at) / Fold change /veh PIWIL2 (11732686_x_at) / RFU ORM1 (11744905_x_at) / Fold change /veh ORM1 (11744905_x_at) / RFU CCDC152 (11743942_at) / Fold change /veh CCDC152 (11743942_at) / RFU ECM1 (11717891_a_at) / Fold change /veh ECM1 (11717891_a_at) / RFU IL23R (11748794_a_at) / Fold change /veh IL23R (11748794_a_at) / RFU TNFAIP8L3 (11732012_x_at) / Fold change /veh TNFAIP8L3 (11732012_x_at) / RFU MBOAT4 (11741988_at) / Fold change /veh MBOAT4 (11741988_at) / RFU 11764193_at / Fold change /veh 11764193_at / RFU TMEM53 (11763286_at) / Fold change /veh TMEM53 (11763286_at) / RFU MAGEB2 (11727129_at) / Fold change /veh MAGEB2 (11727129_at) / RFU TMEM200A (11744735_a_at) / Fold change /veh TMEM200A (11744735_a_at) / RFU CCDC152 (11751479_a_at) / Fold change /veh CCDC152 (11751479_a_at) / RFU FAM211A (11726209_a_at) / Fold change /veh FAM211A (11726209_a_at) / RFU RGS16 (11746705_a_at) / Fold change /veh RGS16 (11746705_a_at) / RFU VCAN (11755009_s_at) / Fold change /veh VCAN (11755009_s_at) / RFU RHOB (11743442_s_at) / Fold change /veh RHOB (11743442_s_at) / RFU RGS16 (11720943_a_at) / Fold change /veh RGS16 (11720943_a_at) / RFU RGS16 (11720944_at) / Fold change /veh RGS16 (11720944_at) / RFU, VPS4B / Fold change vs veh, VPS4B / RFU, CREB1 / Fold change vs veh, CREB1 / RFU, DNAJC13 / Fold change vs veh, DNAJC13 / RFU, GNAQ / Fold change vs veh, GNAQ / RFU, CDK5R1 / Fold change vs veh, CDK5R1 / RFU, ZRANB3 / Fold change vs veh, ZRANB3 / RFU, CUL4A / Fold change vs veh, CUL4A / RFU, CCNY / Fold change vs veh, CCNY / RFU, UFL1 / Fold change vs veh, UFL1 / RFU, COG3 / Fold change vs veh, COG3 / RFU, DIAPH2 / Fold change vs veh, DIAPH2 / RFU, SKA2 / Fold change vs veh, SKA2 / RFU, AFF3 / Fold change vs veh, AFF3 / RFU, LMF1 / Fold change vs veh, LMF1 / RFU, IPO11 / Fold change vs veh, IPO11 / RFU, DFFB / Fold change vs veh, DFFB / RFU, FOXP1 / Fold change vs veh, FOXP1 / RFU, CARD8 / Fold change vs veh, CARD8 / RFU, STRN3 / Fold change vs veh, STRN3 / RFU, ADK / Fold change vs veh, ADK / RFU, RASSF2 / Fold change vs veh, RASSF2 / RFU, WIPF1 / Fold change vs veh, WIPF1 / RFU, LARP1B / Fold change vs veh, LARP1B / RFU, RASA1 / Fold change vs veh, RASA1 / RFU, RB1 / Fold change vs veh, RB1 / RFU, PPFIA1 / Fold change vs veh, PPFIA1 / RFU, MAT2A / Fold change vs veh, MAT2A / RFU, CCT5 / Fold change vs veh, CCT5 / RFU, WDR92 / Fold change vs veh, WDR92 / RFU, CUX1 / Fold change vs veh, CUX1 / RFU, TTC7A / Fold change vs veh, TTC7A / RFU, TMEM135 / Fold change vs veh, TMEM135 / RFU, DEPTOR / Fold change vs veh, DEPTOR / RFU, CPM / Fold change vs veh, CPM / RFU, DNAJB6 / Fold change vs veh, DNAJB6 / RFU, CACNA2D3 / Fold change vs veh, CACNA2D3 / RFU, DTX4 / Fold change vs veh, DTX4 / RFU, TFCP2 / Fold change vs veh, TFCP2 / RFU, GMCL1 /// GMCL1P1 / Fold change vs veh, GMCL1 /// GMCL1P1 / RFU, AEBP2 / Fold change vs veh, AEBP2 / RFU, SNHG1 /// SNORD22 /// SNORD25 /// SNORD26 /// SNORD27 /// SNORD28 /// SNORD29 /// SNORD31 / Fold change vs veh, SNHG1 /// SNORD22 /// SNORD25 /// SNORD26 /// SNORD27 /// SNORD28 /// SNORD29 /// SNORD31 / Fold change (Aza/veh), C12orf56 (ProbeSet 11735607_a_at) / Fold change (ACY-1035/veh), C12orf56 (ProbeSet 11735607_a_at) / Fold change (Aza/veh), FGFR1OP (ProbeSet 11751329_s_at) / Fold change (ACY-1035/veh), FGFR1OP (ProbeSet 11751329_s_at) / Fold change (Aza/veh), VPS36 (ProbeSet 11739960_a_at) / Fold change (ACY-1035/veh), VPS36 (ProbeSet 11739960_a_at) / RFU SYPL1 (11715823_x_at) / Fold change /veh SYPL1 (11715823_x_at) / RFU IGFBP7 (11715501_s_at) / Fold change /veh IGFBP7 (11715501_s_at) / RFU REEP3 (11722064_at) / Fold change /veh REEP3 (11722064_at) / RFU IGLL1 (11728026_x_at) / Fold change /veh IGLL1 (11728026_x_at): dose or concentration left out as unconfirmed
# Settings: MV-4-11 cells, 48 hours
structure (smiles),measurement,value
Nc1ncn([C@@H]2O[C@H](CO)[C@@H](O)[C@H]2O)c(=O)n1 [azacitidine],RFU KRT8 (11758188_x_at),23.78 RFU

# From PMC5218480 (PLoS ONE, 2017)
